Tests used:
[1] = Azide/alkyne click reaction kinetics in a buffered medium (fluorescent test); conditions: for Reaction rate / Ligation yield: aqueous medium at neutral pH, azide, alkyne and Cu 17.5 μM, sodium ascorbate 475 μM (25 eq); for Ligation yield: monitored for 20 minutes
Method: The azide/alkyne coupling reaction kinetics obtained using azides of the present invention and also the kinetics obtained using copper-chelating compounds and azides of the prior art were studied.
The kinetics were done under concentration conditions conventional in bioconjugation, i.e. in an aqueous medium at neutral pH and under conditions of low concentration of reagents: azide, alkyne and Cu 17.5 μM, sodium ascorbate 475 μM (25 eq).
The reactivity of the azides of the invention with respect to the azide/alkyne “click” reaction was evaluated by means of a fluorescent test (scheme 1) which makes it possible to establish the kinetic parameters of the reaction and to compare them with the solutions from the literature. This test uses a pro-fluorescent alkyne C1 which forms a highly fluorescent cycloaddition product C2. The synthesis and the fluorescence properties are described in the literature.
100 μl of a solution containing 35 μM of alkyne C1 and 35 μm of azide RN3 dissolved in a DMF/H2O mixture (50/50) are added to 50 μl of an aqueous solution containing 70 μM of CuSO4. The reaction is then initiated by adding 50 μl of an aqueous solution containing 1.75 mM of ascorbic acid (AS). The cycloaddition reaction is monitored by measuring, every 5 seconds, for 20 minutes, the fluorescence intensity at 400 nm following excitation at 320 nm. The reaction yield is calculated by means of a calibration range previously established with the cyclo-adduct C2.

[2] = Ligation kinetics in a complex medium (cell lysate), fluorescent test; conditions: azide and alkyne 17.5 μM, Cu 350 μM, sodium ascorbate 8.75 mM (500 eq)
Method: An experiment was also carried out in a cell culture medium. The process was carried out as follows:
100 μl of a solution containing 35 μM of alkyne C1 and 35 μM of azide RN3 dissolved in cell lysate are added to 50 μl of cell lysate containing 1.4 mM of CuSO4. The reaction is then initiated by adding 50 μl of an aqueous solution containing 1.75 mM of ascorbic acid (AS). The cycloaddition reaction is monitored by measuring, every 5 seconds, for 20 minutes, the fluorescence intensity at 400 nm following excitation at 320 nm. The reaction yield is calculated by means of a calibration range previously established with the cyclo-adduct C2.
Conditions: Azide and alkyne 17.5 μM, Cu 350 μM, sodium ascorbate 8.75 mM (500 eq).

[3] = Click reaction kinetics of chelating azides in phosphate buffer (fluorescent test); conditions: 0.1M phosphate buffer pH 7.4; alkyne and azide 17 μM, copper sulfate 34 μM, sodium ascorbate 850 μM
Method: (§1) The reaction kinetics were determined by means of a fluorescent test illustrated by the reaction below, making it possible to establish the kinetic parameters of the reaction and to compare them with the solutions from the literature. This test uses a pro-fluorescent alkyne which forms a highly fluorescent cycloaddition product.
(§2) The operating conditions are the following: the same concentration of 17 μM was used for the alkyne and for the azide. The copper sulfate concentration was 34 μM and the sodium ascorbate (AS) concentration was 850 μM.
(§3) The process was carried out, on the one hand, in a 0.1M phosphate buffer at pH 7.4 and, on the other hand, in a cell lysate obtained by means of three cycles of sonication of Jurkat ([…]) for 30 seconds. The alkyne, the azide and the copper sulfate are mixed at ambient temperature for 30 minutes and then the kinetics are initiated by adding sodium ascorbate.

[4] = Click reaction kinetics of chelating azides in cell lysate (fluorescent test); conditions: cell lysate of Jurkat (human T-cell leukemia), alkyne and azide 17 μM, copper sulfate 34 μM, sodium ascorbate 850 μM
Method: as §1, §2, §3

[5] = tested on: HuH-7 cells; test: Ligation in living cells, fluorescence microscopy; assay type: cell-based; conditions: HuH-7 cells pre-incubated with 62.5 nM paclitaxel-alkyne 2; 100 μM copper complex of compound 1 for 4 h
Method: HuH-7 cells fixed on 96-well plates, incubated beforehand in the presence of paclitaxel 2 comprising an alkyne function, were treated with the copper complex above.
The cells were treated with 100 μl of a 62.5 nM solution of compound 2 dissolved in 0.1M phosphate buffer, and then incubated at 37° C. for 30 min. The cells are then washed twice by adding 100 μl of 0.1M phosphate buffer and then treated for 4 h with 100 μl of a 100 μM solution of the copper complex of compound 1. The cells are again washed twice by adding 100 μl of 0.1M phosphate buffer and then fixed by treating with 150 μl of a 4% formaldehyde solution. After fixing for 15 min, the cells are washed twice by adding 100 μl of 0.1M phosphate buffer and then incubated with a 62.5 nM solution of Tubulin Tracker® Green 3 for 30 min at 37° C. The cells are again washed with 0.1M phosphate buffer and then observed by fluorescence microscopy.
After cell washing steps, the fluorescence of the rhodamine part of the copper complex of compound 1 was measured. […] Compound 3, a covalent conjugate between the paclitaxel and the Oregon Green® fluorophore, was used as a control.
FIG. 8A illustrates the localization of the cell nucleus by the 4′,6′-diamidino-2-phenylindole reagent.

Row | Compound | Reaction rate [1] [µM/min] | Ligation yield [1] [%] | position of the ligation yield versus time curve in FIG. 5 [2] | click reaction activity (FIG. 6) [3] | click reaction activity (FIG. 7) [4] | other results
1 | [N-]=[N+]=NCc1ccccn1 [Comparative example 2, reference compound] | 4.2 | 28 | – | – | – | –
2 | COc1ccnc(CN=[N+]=[N-])c1 [Comparative example 3, reference compound] | 3.5 | 35 | lower curves | – | – | –
3 | [N-]=[N+]=NCCCN(Cc1cn(CCCCC(=O)O)nn1)Cc1cn(CCCCC(=O)O)nn1 [Example 1, 5,5′-(4,4′-(((3-azidopropyl)azanediyl)bis(methylene))bis(1H-1,2,3-triazole-4,1-diyl))dipentanoic acid] | 12.0 | 74 | – | make it possible to carry out the click reaction with efficiency | make it possible to carry out the click reaction with efficiency | ligation yields relative to the best comparable compounds of the prior art ([1]; buffered medium): twice as high
4 | CC(C)(C)n1cc(CN(CCCN=[N+]=[N-])Cc2cn(CCCCC(=O)O)nn2)nn1 [Example 2, 5-(4-(((3-azidopropyl)((1-(tert-butyl)-1H-1,2,3-triazol-4-yl)methyl)amino)methyl)-1H-1,2,3-triazol-1-yl)pentanoic acid] | – | – | upper curve | make it possible to carry out the click reaction with efficiency | particularly effective | click reaction activity (FIG. 7) ([4]; listed as A20): make it possible to carry out the click reaction with efficiency
5 | [N-]=[N+]=NCCCN(Cc1ccccn1)Cc1ccccn1 [Example A14, reference compound] | – | – | – | inactive | inactive | –
6 | Cn1c(CN(CCCN=[N+]=[N-])Cc2nc3ccccc3n2C)nc2ccccc21 [Preparation 1, 3-Azido-N,N-bis((1-methyl-1H-benzo[d]imidazol-2-yl)methyl)propan-1-amine] | 101.7 | 65 | – | – | – | click reaction faster than the comparable compounds of the prior art ([1]; buffered medium): approximately 20 times
7 | [N-]=[N+]=NCCCN(Cc1cn(Cc2ccccc2)nn1)Cc1cn(Cc2ccccc2)nn1 [Preparation 2, 3-azido-N, N-bis((1-benzyl-1H-1,2,3-triazol-4-yl)methyl)propan-1-amine] | 10.8 | 45 | – | – | – | –
8 | CN(C)c1ccc2c(-c3cc(C(=O)NCCCN4C(=O)CC(SCC(=O)NCCCNC(=O)CCCn5cc(CN(CCCN=[N+]=[N-])Cc6cn(C(C)(C)C)nn6)nn5)C4=O)ccc3C(=O)[O-])c3ccc(=[N+](C)C)cc-3oc2c1 (centres unmarked) [azide 1, 4-((3-(3((2-((3-(4-(4-(((3-azidopropyl)((1-(tert-butyl)-1H-1,2,3-triazol-4-yl)methyl)amino)methyl)-1H-1,2,3-triazol-1-yl)butanamido)propyl)amino)-2-oxoethyl)thio)-2,5-dioxopyrrolidin-1-yl)propyl)carbamoyl)-2-(6-(dimethylamino)-3-(dimethyliminio)-3H-xanthen-9-yl)benzoate] | – | – | – | – | – | cell penetration and intracellular click coupling to paclitaxel-alkyne 2 bound to tubulin (FIG. 8) [5]: capable of penetrating inside the cells and of coupling
9 | Diethyl 5,5′-(4,4′-(((3-azidopropyl)azanediyl)bis(methylene))bis(1H-1,2,3-triazole-4,1-diyl))dipentanoate [Preparation 3] | 16.5 | 67 | middle curve | – | – | ligation yields relative to the best comparable compounds of the prior art ([1]; buffered medium): twice as high

Reference: US20150274701A1, “NEW AZIDES, METHOD FOR PRODUCING SAME AND APPLICATIONS THEREOF” (COMMISSARIAT A L'ENERGIE ATOMIQUE ET AUX ENERGIES …, priority 2012, published 2015)
